From ChEMBL document CHEMBL1143459, “High affinity ligands for the alpha7 nicotinic receptor that show no cross-reactivity with the 5-HT3 receptor” (Bioorg Med Chem Lett, 2005)

Columns and labels:
[1] = target: Neuronal acetylcholine receptor subunit alpha-7 (Homo sapiens, UniProt P36544); assay: Binding affinity towards human nicotinic acetylcholine receptor alpha 7 expressed in GH4C1 cell using [3H]methyllycaconitine; format: cell-based, GH4-C1
[2] = target: Serotonin 3 (5-HT3) receptor; assay: Binding affinity towards human 5-hydroxytryptamine 3 serotonin membrane receptor using [3H]GR-65630 at 10 uM
[3] = target: Serotonin 3 (5-HT3) receptor; assay: Binding affinity for human 5-hydroxytryptamine 3 serotonin membrane receptor using [3H]GR-65630

Chain of Neuronal acetylcholine receptor subunit alpha-7 (P36544 whole entry): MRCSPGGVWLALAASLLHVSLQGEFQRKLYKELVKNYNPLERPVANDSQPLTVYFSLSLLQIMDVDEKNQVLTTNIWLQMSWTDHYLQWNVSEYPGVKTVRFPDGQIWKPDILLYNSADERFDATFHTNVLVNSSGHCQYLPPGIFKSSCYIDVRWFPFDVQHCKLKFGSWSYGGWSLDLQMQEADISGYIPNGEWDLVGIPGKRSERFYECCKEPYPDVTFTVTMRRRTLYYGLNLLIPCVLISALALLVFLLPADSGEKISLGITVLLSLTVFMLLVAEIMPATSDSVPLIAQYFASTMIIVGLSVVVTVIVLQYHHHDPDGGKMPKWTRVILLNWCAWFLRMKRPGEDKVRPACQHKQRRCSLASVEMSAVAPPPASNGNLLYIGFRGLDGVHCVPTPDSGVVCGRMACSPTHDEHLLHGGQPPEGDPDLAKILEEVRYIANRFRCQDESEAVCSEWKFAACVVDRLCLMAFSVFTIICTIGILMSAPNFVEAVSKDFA

Compound: CC(=O)O.O=C(N[C@H]1CN2CCC1CC2)c1ccc(-c2ccccc2)s1
- Ki [1]: 1.8 nM
- inhibition [2]: 24%

Compound: O=C(NC1CN2CCC1CC2)c1csc(-c2ccccc2)c1 (stereo not given)
- Ki [1]: 16.7 nM
- Ki [3]: 409 nM

Compound: O=C(N[C@@H]1CN2CCC1CC2)c1ccc(-c2ccccc2)s1
- Ki [1]: 26.9 nM
- Ki [3]: 1550 nM

Compound: c1cncc(CNc2cnc3c(c2)C[C@@]2(CN4CCC2CC4)O3)c1
- Ki [3]: 2220 nM

Compound: CCN1C[C@]2(COC(=O)c3ccccc3N3C(=O)C[C@H](C)C3=O)CC[C@H](OC)[C@@]34[C@@H]5C[C@H]6[C@H](OC)[C@@H]5[C@](O)(C[C@@H]6OC)[C@](O)([C@@H](OC)[C@H]23)[C@@H]14 [METHYLLYCACONITINE]
- Ki [1]: 7.3 nM
- inhibition [2]: 16.5%

Compound: O=C(N[C@H]1CN2CCC1CC2)c1ccc(-c2ccccc2)s1 (racemic)
- Ki [1]: 3.4 nM
- Ki [3]: 2020 nM

Compound: O=C(NC1CN2CCC1CC2)c1ccc(-c2ccccn2)s1 (stereo not given)
- Ki [1]: 6.9 nM
- inhibition [2]: 28%

Compound: O=C(NC1CN2CCC1CC2)c1cc(-c2ccccc2)sn1 (stereo not given)
- Ki [1]: 4.1 nM
- inhibition [2]: 28%

Compound: O=C(N[C@H]1CN2CCC1CC2)c1ccc(-c2ccccn2)s1
- Ki [1]: 1.3 nM
- inhibition [2]: 15.5%

Compound: COc1ccccc1-c1ccc(C(=O)NC2CN3CCC2CC3)s1 (stereo not given)
- Ki [1]: 268 nM
- inhibition [2]: 27%

Compound: O=C(NC1CN2CCC1CC2)c1csc(-c2ccccc2)n1 (stereo not given)
- Ki [1]: 121 nM
- Ki [3]: 665 nM

Compound: c1ccc(-c2cnc3c(c2)C[C@@]2(CN4CCC2CC4)O3)cc1
- Ki [1]: 3.1 nM
- Ki [3]: 73 nM

Compound: O=C1NC[C@]2(CN3CCC2CC3)O1
- inhibition [2]: 2.5%

Compound: O=C(NC1CN2CCC1CC2)c1ccc(-c2ccccc2)s1 (stereo not given)
- Ki [1]: 3.4 nM
- Ki [3]: 2020 nM

Compound: O=C(NC1CN2CCC1CC2)c1ccc(-c2ccccc2Cl)s1 (stereo not given)
- Ki [1]: 525 nM
- inhibition [2]: 45%

Compound: O=C(NC1CN2CCC1CC2)c1ccc(-c2cccs2)s1 (stereo not given)
- Ki [1]: 1.1 nM
- Ki [3]: 1040 nM
